From ChEMBL document CHEMBL1146045, “Design of novel, potent, and selective human beta-tryptase inhibitors based on alpha-keto-[1,2,4]-oxadiazoles” (Bioorg Med Chem Lett, 2006)
Values after ≈ are worked out from the molar mass of the structure shown.

Key:
Tryptase beta-1 = Tryptase beta-1 (Homo sapiens, UniProt Q15661); assay: Inhibition of human beta tryptase
Trypsin = Trypsin (Homo sapiens, UniProt P07477+P07478+P35030); assay: Inhibition of human trypsin; assay type: protein assay
[1] = Solubility at pH 7.4; assay type: physicochemical; conditions: buffer
hERG (KCNH2) [2] = biological target: T1, hERG (KCNH2) (Homo sapiens, UniProt Q12809); assay: Inhibition of hERG at 1 uM; assay type: toxicity
[3] = Stability in human liver microsome after 1 hr; assay type: ADME; conditions: liver microsomes, read-out: Stability
hERG (KCNH2) [4] = biological target: T1, hERG (KCNH2); assay: Inhibition of hERG at 10 uM; assay type: toxicity
Prothrombin = Prothrombin (Homo sapiens, UniProt P00734); assay: Inhibition of thrombin
Coagulation factor VII = biological target: T2, Coagulation factor VII (Homo sapiens, UniProt P08709); assay: Inhibition of F7a
T2 sequence (P08709 whole entry): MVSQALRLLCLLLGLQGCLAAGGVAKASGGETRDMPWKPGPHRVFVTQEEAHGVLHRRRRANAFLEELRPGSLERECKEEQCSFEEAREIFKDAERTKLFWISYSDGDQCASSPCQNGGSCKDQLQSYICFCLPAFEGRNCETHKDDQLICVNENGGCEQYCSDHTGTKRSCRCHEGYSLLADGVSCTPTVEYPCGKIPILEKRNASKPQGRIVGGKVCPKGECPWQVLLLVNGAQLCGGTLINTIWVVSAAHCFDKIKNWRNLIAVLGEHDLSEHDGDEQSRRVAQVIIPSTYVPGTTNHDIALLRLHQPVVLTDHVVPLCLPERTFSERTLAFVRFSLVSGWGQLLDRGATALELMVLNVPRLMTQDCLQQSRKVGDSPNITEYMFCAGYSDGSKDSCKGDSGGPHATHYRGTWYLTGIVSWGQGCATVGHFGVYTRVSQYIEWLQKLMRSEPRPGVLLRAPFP

Coagulation factor X = Coagulation factor X (Homo sapiens, UniProt P00742); assay: Inhibition of F10a
Chain of Coagulation factor X (P00742 41-179 limits assumed): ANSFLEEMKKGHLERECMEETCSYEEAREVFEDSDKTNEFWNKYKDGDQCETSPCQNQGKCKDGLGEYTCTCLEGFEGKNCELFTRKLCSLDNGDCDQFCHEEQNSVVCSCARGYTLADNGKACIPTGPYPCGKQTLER
Chain of Coagulation factor X (P00742 235-488 limits assumed): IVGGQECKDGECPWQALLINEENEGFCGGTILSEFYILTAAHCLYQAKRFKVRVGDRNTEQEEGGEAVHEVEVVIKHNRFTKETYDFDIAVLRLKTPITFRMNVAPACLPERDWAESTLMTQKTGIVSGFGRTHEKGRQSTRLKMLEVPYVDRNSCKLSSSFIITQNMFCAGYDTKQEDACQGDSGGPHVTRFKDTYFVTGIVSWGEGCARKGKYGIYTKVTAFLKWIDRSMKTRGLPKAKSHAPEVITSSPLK

Chain of Tryptase beta-1 (Q15661 whole entry): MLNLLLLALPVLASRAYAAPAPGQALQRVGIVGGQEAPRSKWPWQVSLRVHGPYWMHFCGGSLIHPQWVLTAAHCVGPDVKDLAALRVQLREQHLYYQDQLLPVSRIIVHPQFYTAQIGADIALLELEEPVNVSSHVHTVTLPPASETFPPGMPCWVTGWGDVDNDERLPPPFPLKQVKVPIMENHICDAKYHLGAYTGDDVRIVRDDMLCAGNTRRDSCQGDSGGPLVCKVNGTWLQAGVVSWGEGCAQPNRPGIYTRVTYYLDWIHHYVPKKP
T1 sequence (Q12809 whole entry): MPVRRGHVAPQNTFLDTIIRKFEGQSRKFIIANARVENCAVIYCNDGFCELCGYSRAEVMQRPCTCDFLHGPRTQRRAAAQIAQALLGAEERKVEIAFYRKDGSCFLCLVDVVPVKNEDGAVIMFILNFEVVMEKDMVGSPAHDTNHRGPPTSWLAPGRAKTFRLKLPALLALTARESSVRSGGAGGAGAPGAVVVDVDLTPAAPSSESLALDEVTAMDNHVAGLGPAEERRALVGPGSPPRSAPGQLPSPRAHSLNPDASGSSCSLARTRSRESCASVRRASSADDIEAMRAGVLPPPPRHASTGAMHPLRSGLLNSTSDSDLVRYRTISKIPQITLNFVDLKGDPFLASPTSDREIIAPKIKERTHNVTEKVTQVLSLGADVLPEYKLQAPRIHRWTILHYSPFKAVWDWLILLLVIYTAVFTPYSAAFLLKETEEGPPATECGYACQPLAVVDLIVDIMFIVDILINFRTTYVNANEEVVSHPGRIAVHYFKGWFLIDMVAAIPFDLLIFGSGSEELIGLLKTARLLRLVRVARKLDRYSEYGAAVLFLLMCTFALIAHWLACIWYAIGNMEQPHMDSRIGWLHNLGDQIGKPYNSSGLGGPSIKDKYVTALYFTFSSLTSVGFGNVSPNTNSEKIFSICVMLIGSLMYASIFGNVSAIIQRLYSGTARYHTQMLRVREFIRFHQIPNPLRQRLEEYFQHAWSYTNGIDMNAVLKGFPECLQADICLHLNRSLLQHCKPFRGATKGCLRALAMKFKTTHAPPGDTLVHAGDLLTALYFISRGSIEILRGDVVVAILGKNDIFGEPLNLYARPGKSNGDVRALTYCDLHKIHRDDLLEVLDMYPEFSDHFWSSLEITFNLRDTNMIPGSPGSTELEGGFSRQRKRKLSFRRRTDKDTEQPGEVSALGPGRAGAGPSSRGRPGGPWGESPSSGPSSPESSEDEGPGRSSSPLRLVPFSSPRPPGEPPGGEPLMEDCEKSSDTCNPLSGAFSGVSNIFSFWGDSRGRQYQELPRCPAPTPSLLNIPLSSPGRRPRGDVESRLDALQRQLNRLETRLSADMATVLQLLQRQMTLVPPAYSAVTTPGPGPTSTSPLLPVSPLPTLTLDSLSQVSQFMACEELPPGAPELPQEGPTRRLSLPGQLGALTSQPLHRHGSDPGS

NCCCC[C@H](NC(=O)OCc1ccccc1)C(=O)c1noc(Cc2ccc(C(=O)NCCc3cc(F)cc(F)c3)cc2)n1
Ki (Tryptase beta-1): 3.5 nM | Ki (Trypsin): 18 nM | solubility [1]: 333 µM (≈ 202 µg/mL)

CCOC(=O)N[C@@H](CCCCN)C(=O)c1noc(Cc2ccc(C(=O)NCCc3cccc(Cl)c3)cc2)n1
Ki (Tryptase beta-1): 1.9 nM | Ki (Trypsin): 180 nM | solubility [1]: 471 µM (≈ 255 µg/mL)

NCCCC[C@H](NC(=O)OCc1ccccc1)C(=O)c1noc(CN2CCN(CCCc3ccccc3)CC2)n1
Ki (Tryptase beta-1): 11 nM | solubility [1]: 329 µM (≈ 181 µg/mL)

CC(C)CCNC(=O)c1ccc(Cc2nc(C(=O)[C@H](CCCCN)NC(=O)OCc3ccccc3)no2)cc1
Ki (Tryptase beta-1): 9.9 nM | Ki (Trypsin): 29 nM | solubility [1]: 364 µM (≈ 195 µg/mL) | inhibition at 1 µM (hERG (KCNH2) [2]): 0%

NCCCC[C@H](NC(=O)c1cc(F)cc(F)c1)C(=O)c1noc(Cc2ccc(C(=O)NCCc3cccc(Cl)c3)cc2)n1
Ki (Tryptase beta-1): 1.5 nM | Ki (Trypsin): 410 nM | solubility [1]: 313 µM (≈ 191 µg/mL)

Cc1ccc(CNC(=O)c2ccc(Cc3nc(C(=O)[C@H](CCCCN)NC(=O)OCc4ccccc4)no3)cc2)cc1C
Ki (Tryptase beta-1): 39 nM | Ki (Trypsin): 34 nM | solubility [1]: 245 µM (≈ 143 µg/mL)

NCCCC[C@H](NC(=O)OCc1ccccc1)C(=O)c1noc(Cc2ccc(C(=O)NCc3ccc4ccccc4c3)cc2)n1
Ki (Tryptase beta-1): 11 nM | Ki (Trypsin): 15 nM | solubility [1]: 100 µM (≈ 60.6 µg/mL)

NCCCC[C@H](NC(=O)c1cccc(F)c1)C(=O)c1noc(Cc2ccc(C(=O)NCCc3cccc(Cl)c3)cc2)n1
Ki (Tryptase beta-1): 1.7 nM | Ki (Trypsin): 280 nM | solubility [1]: 422 µM (≈ 250 µg/mL)

NCCCC[C@H](NC(=O)OCc1ccccc1)C(=O)c1noc(CN2CCN(C(=O)CCc3ccccc3)CC2)n1
Ki (Tryptase beta-1): 230 nM | Ki (Trypsin): 33 nM

COc1ccc(Cc2nc(C(=O)[C@H](CCCCN)NC(=O)OCc3ccccc3)no2)cc1
Ki (Tryptase beta-1): 770 nM | Ki (Trypsin): 22 nM | solubility [1]: 348 µM (≈ 157 µg/mL)

NCCCC[C@H](NC(=O)OCc1ccccc1)C(=O)c1noc(CN2CCN(C(=O)CCCc3ccccc3)CC2)n1
Ki (Tryptase beta-1): 34 nM | Ki (Trypsin): 22 nM | solubility [1]: > 500 µM | remaining at 1 h [3]: 2% | inhibition at 10 µM (hERG (KCNH2) [4]): 2.3%

NCCCC[C@H](NC(=O)OCc1ccccc1)C(=O)c1noc(Cc2ccc(C(=O)NCc3cccc4ccccc34)cc2)n1
Ki (Tryptase beta-1): 13 nM | Ki (Trypsin): 26 nM | solubility [1]: 77.2 µM (≈ 46.8 µg/mL)

NCCCC[C@H](NC(=O)OCc1ccccc1)C(=O)c1noc(Cc2ccc(C(=O)NCCc3ccccc3)cc2)n1
Ki (Tryptase beta-1): 3.2 nM | Ki (Trypsin): 20 nM | solubility [1]: 440 µM (≈ 251 µg/mL)

NCCCC[C@H](NC(=O)OCc1ccccc1)C(=O)c1noc(Cc2ccc(C(=O)NC3Cc4ccccc4C3)cc2)n1
Ki (Tryptase beta-1): 3.7 nM | Ki (Trypsin): 21 nM | solubility [1]: 206 µM (≈ 120 µg/mL) | Ki (Prothrombin): 48000 nM | Ki (Coagulation factor VII): 140000 nM | Ki (Coagulation factor X): 100000 nM

NCCCC[C@H](NC(=O)c1ccc(F)cc1)C(=O)c1noc(Cc2ccc(C(=O)NCCc3cccc(Cl)c3)cc2)n1
Ki (Tryptase beta-1): 1.8 nM | Ki (Trypsin): 240 nM | solubility [1]: 390 µM (≈ 231 µg/mL)

NCCCC[C@H](NC(=O)OCc1ccccc1)C(=O)c1noc(Cc2ccc(C(=O)NCCc3cccs3)cc2)n1
Ki (Tryptase beta-1): 2.4 nM | Ki (Trypsin): 13 nM | solubility [1]: 484 µM (≈ 279 µg/mL) | inhibition at 10 µM (hERG (KCNH2) [4]): 7.2%

CC(C)(C)C(=O)N[C@@H](CCCCN)C(=O)c1noc(Cc2ccc(C(=O)NCCc3cccc(Cl)c3)cc2)n1
Ki (Tryptase beta-1): 2 nM | Ki (Trypsin): 470 nM | solubility [1]: 30 µM (≈ 16.6 µg/mL)

NCCCC[C@H](NC(=O)OCc1ccccc1)C(=O)c1noc(Cc2ccc(C(=O)NCCCCc3ccccc3)cc2)n1
Ki (Tryptase beta-1): 60 nM | Ki (Trypsin): 14 nM | solubility [1]: 188 µM (≈ 112 µg/mL)

NCCCC[C@H](NC(=O)OCc1ccccc1)C(=O)c1noc(Cc2ccc(C(=O)N3CCN(Cc4ccccc4F)CC3)cc2)n1
Ki (Tryptase beta-1): 140 nM | Ki (Trypsin): 3.7 nM | solubility [1]: 472 µM (≈ 303 µg/mL)

NCCCC[C@H](NC(=O)OCc1ccccc1)C(=O)c1noc(Cc2ccc(C(=O)NCCOc3ccc(F)cc3)cc2)n1
Ki (Tryptase beta-1): 2.9 nM | Ki (Trypsin): 11 nM | solubility [1]: 299 µM (≈ 180 µg/mL)

CCOC(=O)N[C@@H](CCCCN)C(=O)c1noc(Cc2ccc(C(=O)NC3Cc4ccccc4C3)cc2)n1
Ki (Trypsin): 170 nM | remaining at 1 h [3]: 64% | Ki (Prothrombin): 60000 nM | Ki (Coagulation factor VII): > 150000 nM | Ki (Coagulation factor X): 140000 nM

NCCCC[C@H](NC(=O)OCc1ccccc1)C(=O)c1noc(Cc2ccc(C(=O)NC/C=C/c3ccccc3)cc2)n1
Ki (Tryptase beta-1): 3.6 nM | Ki (Trypsin): 18 nM | solubility [1]: 226 µM (≈ 131 µg/mL)

NCCCC[C@H](NC(=O)OCc1ccccc1)C(=O)c1noc(Cc2ccc(C(=O)NCCc3cccc(C(F)(F)F)c3)cc2)n1
Ki (Tryptase beta-1): 8.2 nM | Ki (Trypsin): 30 nM | solubility [1]: 284 µM (≈ 181 µg/mL)

NCCCC[C@H](NC(=O)c1ccc(Cl)cc1)C(=O)c1noc(Cc2ccc(C(=O)NCCc3cccc(Cl)c3)cc2)n1
Ki (Tryptase beta-1): 1.9 nM | Ki (Trypsin): 330 nM

NCCCC[C@H](NC(=O)OCc1ccccc1)C(=O)c1noc(Cc2ccc(C(=O)NCCc3cccc(Cl)c3)cc2)n1
Ki (Tryptase beta-1): 1.8 nM | Ki (Trypsin): 23 nM | solubility [1]: 109 µM (≈ 65.8 µg/mL)

NCCCC[C@H](NC(=O)OCc1ccccc1)C(=O)c1noc(CN2CCN(CCCCc3ccccc3)CC2)n1
Ki (Tryptase beta-1): 5.8 nM | Ki (Trypsin): 12 nM | solubility [1]: 466 µM (≈ 262 µg/mL) | remaining at 1 h [3]: 22%

NCCCC[C@H](NC(=O)OCc1ccccc1)C(=O)c1noc(CN2CCN(C(=O)OCc3ccccc3)CC2)n1
Ki (Tryptase beta-1): 470 nM | Ki (Trypsin): 42 nM

NCCCC[C@H](NC(=O)OCc1ccccc1)C(=O)c1noc(Cc2ccc(C(=O)NCCc3ccc(Cl)c(Cl)c3)cc2)n1
Ki (Tryptase beta-1): 16 nM | Ki (Trypsin): 31 nM

NCCCC[C@H](NC(=O)c1ccc2c(c1)OCO2)C(=O)c1noc(Cc2ccc(C(=O)NCCc3cccc(Cl)c3)cc2)n1
Ki (Tryptase beta-1): 2.1 nM | Ki (Trypsin): 330 nM | solubility [1]: 337 µM (≈ 208 µg/mL)

NCCCC[C@H](NC(=O)OCc1ccccc1)C(=O)c1noc(Cc2ccc(C(=O)NCCCc3ccccc3)cc2)n1
Ki (Tryptase beta-1): 3 nM | Ki (Trypsin): 19 nM | solubility [1]: 370 µM (≈ 216 µg/mL)

NCCCC[C@H](NC(=O)c1ccc(F)c(F)c1)C(=O)c1noc(Cc2ccc(C(=O)NCCc3cccc(Cl)c3)cc2)n1
Ki (Tryptase beta-1): 1.7 nM | Ki (Trypsin): 440 nM | solubility [1]: 349 µM (≈ 213 µg/mL)

NCCCC[C@H](NC(=O)OCc1ccccc1)C(=O)c1noc(Cc2ccc(C(=O)NCc3ccccc3)cc2)n1
Ki (Tryptase beta-1): 37 nM | Ki (Trypsin): 23 nM | solubility [1]: 459 µM (≈ 255 µg/mL)

NCCCC[C@H](NC(=O)OCc1ccccc1)C(=O)c1noc(Cc2ccc(C(=O)NCCc3ccc(C(F)(F)F)cc3)cc2)n1
Ki (Tryptase beta-1): 220 nM | Ki (Trypsin): 27 nM | solubility [1]: 227 µM (≈ 145 µg/mL)

NCCCC[C@H](NC(=O)OCc1ccccc1)C(=O)c1noc(Cc2ccc(OCCc3ccccc3)cc2)n1
solubility [1]: 23 µM (≈ 12.5 µg/mL) | inhibition at 1 µM (hERG (KCNH2) [2]): 40%
